These results are taken from patent publication US20040161794A1 (The General Hospital Corporation, priority 2002, published 2004).

For one series, the system named is rat hypothalamic tissue. The conditions noted are these: injected intravenously or included in the in vitro incubation of rat hypothalamic tissue; cited from earlier work.
A further series relates to cultured rat myocytes. The conditions noted are these: cited from earlier work.
In another series the target is T1, Na^+ pump (Homo sapiens, UniProt P05023).
T1 construct: measuring active ^86Rb^+(K^+ analogue) transport into human erythrocytes; endogenous in cells; host or cells: human erythrocytes
The series can be described thus: Inhibition of Na+ pump activity (active Rb+ uptake) in human erythrocytes. The class given is cell-based. The settings on record: 1 mM, standard. The method, then:
After purifying the conditioned medium by reverse-phase column chromatography (Sep-Pak, Waters), the resulting sample was assayed using the ^86Rb uptake assay to determine a change in inhibition as previously described in Carilli et al., J. Biol. Chem., 260:1027-1031 (1985).
PC12 cells are studied for the presence of the genes of interest, then the release of inhibitor from these cells is confirmed using the method of Komiyama (Komiyama et al., J. Hypertens., 19:229-236 (2001)). Collected supernatants are acidified to dissociate OLC from putative carrier proteins, and purified using Sep-Pak C18 cartridges eluted with acetonitrile.

In series [1] the test system is vascular rings from rat pulmonary artery and aorta. The conditions noted are these: in vitro; cited from earlier work.
For the next series, the system named is PC12 cells. The conditions noted are these: added to the culture media of PC12 cells; cited from earlier work.

With `CC[C@H](C)[C@@H]1NC(=O)[C@H](CCCNC(=N)N)NC(=O)[C@H](CC(=O)O)NC(=O)[C@H](CCSC)NC(=O)[C@H](CCCNC(=N)N)NC(=O)CNC(=O)CNC(=O)[C@H](Cc2ccccc2)NC(=O)[C@@H](NC(=O)[C@H](CO)NC(=O)[C@H](CO)NC(=O)[C@H](CCCNC(=N)N)NC(=O)[C@H](CCCNC(=N)N)NC(=O)[C@H](CC(C)C)NC(=O)[C@@H](N)CO)CSSC[C@@H](C(=O)N[C@@H](CC(N)=O)C(=O)N[C@@H](CO)C(=O)N[C@@H](Cc2ccccc2)C(=O)N[C@@H](CCCNC(=N)N)C(=O)N[C@@H](Cc2ccc(O)cc2)C(=O)O)NC(=O)CNC(=O)[C@H](CC(C)C)NC(=O)CNC(=O)[C@H](CO)NC(=O)[C@H](CCC(N)=O)NC(=O)[C@H](C)NC(=O)CNC1=O` [atrial natriuretic peptide], the “release of the Na+,K+-ATPase inhibitor” value with rat hypothalamic tissue was “decreased the release”.
Regarding `C[C@@H]1O[C@@H](O[C@H]2C[C@@H](O)[C@]3(CO)[C@H]4[C@H](O)C[C@]5(C)[C@@H](C6=CC(=O)OC6)CC[C@]5(O)[C@@H]4CC[C@]3(O)C2)[C@H](O)[C@H](O)[C@H]1O` [ouabain], the “toxicity at the same intracellular Ca++ concentration” value in the series on cultured rat myocytes is on record as “toxic”. The “inhibition of active Na+ transport” value at Na^+ pump was “Complete inhibition”. The “effect on isolated vascular rings” value in series [1] is on record as “unaffected by Oua except at toxic concentrations”.
For `CC(=O)[C@H]1CC[C@H]2[C@@H]3CCC4=CC(=O)CC[C@]4(C)[C@H]3CC[C@]12C` [progesterone], the “amount of OLC release into culture supernatants” value with PC12 cells was “augmented in a dose-dependent manner”.
